Some test systems named below: 786-0 renal; COLO 205 colon; DU-145 prostate; HOP-62 NSCLC; HS 578T breast; KM12 colon; NCI-H23 lung; NCI-H522 lung; SF-268 CNS; SF-295 CNS; SK-OV-3 ovarian; TK-10 renal; UACC-257 melanoma; UACC-62 melanoma; UO-31 renal; SK-MEL-28 melanoma.
Assay in all cases: NCI-60 cell line screen, 48 h

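Test compounds were applied to cells in 96-well plates for 48 hours at 5 doses. The concentration for full growth arrest is given as TGI.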 Where a SMILES comes first, the peptide text is derived from it. [ ]: non-standard residue; d: D form. The star is where a group is joined. ξ: configuration not given here. ξPhe(4-NO2) = NC(Cc1ccc([N+](=O)[O-])cc1)C(=O)O; Boc = CC(C)(C)OC(=O)*

For the molecule `CN(/N=C/c1ccccc1C(=O)O)C1=NCCCCN1`, the TGI in the assay with 786-0 renal, with COLO 205 colon, with DU-145 prostate, with HOP-62 NSCLC, in the assay with HS 578T breast and in the assay on KM12 colon was above 100 µM throughout. The TGI in the assay on NCI-H23 lung is above 100 µM; with NCI-H522 lung, 36.7 µM; in the assay on SF-268 CNS, above 100 µM; in the assay with SF-295 CNS it was above 100 µM; in the assay with SK-OV-3 ovarian it was above 100 µM; with TK-10 renal, above 100 µM. Besides, the TGI in the assay with UACC-257 melanoma, in the assay on UACC-62 melanoma and in the assay with UO-31 renal was above 100 µM in each case.
Take `COc1cc2c3cc1Oc1c(OC)c(OC)cc4c1C(Cc1ccc(O)c(c1)-c1cc(ccc1OC)CC3N(C)CC2)N(C)CC4` (centres undefined): the TGI in the assay on 786-0 renal was above 100 µM; with COLO 205 colon it was above 100 µM; with DU-145 prostate it was above 100 µM; in the assay on HS 578T breast, 59.1 µM; in the assay on KM12 colon, 37.6 µM; in the assay on NCI-H23 lung, 51.5 µM. The TGI in the assay on NCI-H522 lung is 31.1 µM; in the assay with SF-268 CNS, 72.3 µM; in the assay with SF-295 CNS, 39.4 µM; in the assay with SK-MEL-28 melanoma, 82.7 µM; in the assay with SK-OV-3 ovarian, above 100 µM; with TK-10 renal, above 100 µM. The TGI in the assay on UACC-257 melanoma is 59.3 µM; in the assay with UACC-62 melanoma it was 57.2 µM; in the assay on UO-31 renal, 29.2 µM.
With `CCN(CCCl)c1cc(CN(C)C)cc(NC(=O)c2ccc(C(=O)Nc3ccccc3)cc2)c1`, the TGI with 786-0 renal is 0.581 µM; in the assay with COLO 205 colon it was 2.27 µM; in the assay with DU-145 prostate, 6.92 µM; in the assay on HOP-62 NSCLC it was 3.21 µM; with HS 578T breast, 0.583 µM; with KM12 colon it was 2.8 µM. Also, the TGI with NCI-H23 lung came to 1.27 µM; with NCI-H522 lung, 0.317 µM; with SF-268 CNS it was 13.6 µM; in the assay on SF-295 CNS it was 12.4 µM; with SK-MEL-28 melanoma, 4.36 µM; in the assay with SK-OV-3 ovarian it was 11.1 µM. Moreover, the TGI worked out at 7.57 µM in the assay with TK-10 renal, 3.27 µM in the assay on UACC-257 melanoma, 4.03 µM in the assay with UACC-62 melanoma and 4.4 µM in the assay with UO-31 renal.
Take `CCNC(=O)CNC(=O)C(Cc1ccc([N+](=O)[O-])cc1)NC(=O)OC(C)(C)C` (centres undefined) (Boc-[ξPhe(4-NO2)]-Gly-NHEt): the TGI in the assay with 786-0 renal, in the assay on COLO 205 colon, in the assay on DU-145 prostate, in the assay on HOP-62 NSCLC, with HS 578T breast and in the assay on KM12 colon was above 100 µM each time. The TGI in the assay with NCI-H23 lung, in the assay on NCI-H522 lung, with SF-268 CNS, in the assay on SF-295 CNS, with SK-MEL-28 melanoma and in the assay with SK-OV-3 ovarian was above 100 µM each time. Also, the TGI with TK-10 renal, in the assay on UACC-62 melanoma and in the assay with UO-31 renal was above 100 µM throughout.
`Clc1nc(Nc2nc3ccccc3[nH]2)nc(Cl)c1-c1ccccc1`: the TGI in the assay on 786-0 renal was 34.6 µM; with COLO 205 colon, 51.3 µM; in the assay with DU-145 prostate it was above 100 µM; in the assay with HS 578T breast it was 56.4 µM; in the assay on KM12 colon, above 100 µM; in the assay on NCI-H23 lung, 58.4 µM. In addition, the TGI in the assay with NCI-H522 lung was 42.5 µM; in the assay with SF-268 CNS, above 100 µM; in the assay on SF-295 CNS, 46.8 µM; in the assay with SK-MEL-28 melanoma, 27 µM; with SK-OV-3 ovarian it was 50.5 µM; in the assay with TK-10 renal it was above 100 µM. Besides, the TGI came out at 80.2 µM with UACC-257 melanoma, 36.9 µM in the assay on UACC-62 melanoma and 42.4 µM in the assay with UO-31 renal.
For `COc1cc(C2SCC(=O)N2NC(=O)c2ccc(NC(C)=O)cc2OC)ccc1O` (centres undefined), the TGI was above 100 µM with 786-0 renal; above 100 µM in the assay on COLO 205 colon; above 100 µM in the assay with DU-145 prostate; 36.7 µM in the assay on HOP-62 NSCLC; above 100 µM in the assay on HS 578T breast; above 100 µM with NCI-H23 lung. For the same molecule, the TGI in the assay with NCI-H522 lung was above 100 µM; in the assay on SF-268 CNS, 99 µM; in the assay on SF-295 CNS, 47 µM; in the assay with SK-MEL-28 melanoma it was above 100 µM; in the assay with SK-OV-3 ovarian it was 26.7 µM; in the assay with UACC-62 melanoma, above 100 µM. Besides, in the assay with UO-31 renal, the TGI is above 100 µM.
Turning to `CCNC1=C(NC(=O)CCl)C(=O)c2ccccc2C1=O`, the TGI is above 100 µM with 786-0 renal; above 10 µM with COLO 205 colon; above 10 µM with DU-145 prostate; 30.2 µM in the assay with HOP-62 NSCLC; 60.6 µM with HS 578T breast; 32 µM in the assay on KM12 colon. For the same molecule, the TGI in the assay on NCI-H23 lung was 36 µM; with NCI-H522 lung, 32.2 µM; with SF-268 CNS, 32.8 µM; in the assay with SF-295 CNS, 36.9 µM; in the assay with SK-MEL-28 melanoma, 31.7 µM; in the assay on SK-OV-3 ovarian, above 10 µM. The TGI is 31.5 µM in the assay with TK-10 renal and above 10 µM with UACC-257 melanoma.
Turning to `Brc1ccc(C2CC3(c4ccccc4)ON=C(c4ccccc4)N3c3ccccc3S2)cc1` (centres undefined), the TGI in the assay on 786-0 renal, in the assay with COLO 205 colon, in the assay with DU-145 prostate, in the assay on HOP-62 NSCLC, in the assay on HS 578T breast and with KM12 colon was above 100 µM in each case. Moreover, the TGI in the assay on NCI-H23 lung, in the assay on NCI-H522 lung, with SF-268 CNS, with SF-295 CNS, in the assay with SK-MEL-28 melanoma and with SK-OV-3 ovarian was above 100 µM each time. Besides, the TGI in the assay on TK-10 renal, with UACC-257 melanoma, in the assay with UACC-62 melanoma and in the assay with UO-31 renal was above 100 µM in each case.

Values taken from PubChem BioAssay (NCI).
